Earlier results in patent US7713569B2, “Hydroxytyrosol-rich composition from olive vegetation water and method of use thereof” (Creagri, Inc., priority 2000, dated 2010).

What was measured:
[1] = system: peroxynitrite dependent DNA base modification and tyrosine nitration; conditions: Deiana et al., 1999
5-lipoxygenase = conditions: de la Puerta et al., 1999; Kohyama et al., 1997
[2] = system: various human cellular systems; conditions: Manna et al., 2000
[3] = system: low density lipoprotein (LDL) oxidation; conditions: Visioli and Galli, 1998
platelet aggregation = conditions: Petroni et al., 1995
[4] = humans; Visioli et al., 2000
12-lipoxygenase = conditions: de la Puerta et al., 1999; Kohyama et al., 1997

For OCCc1ccc(O)c(O)c1 [hydroxytyrosol, 3,4-dihydroxyphenethyl alcohol], the “effect on peroxynitrite dependent DNA base modification and tyrosine nitration” value [1] is listed as “inhibitory effect”, the “inhibition of 5-lipoxygenase” value (5-lipoxygenase) is listed as “inhibits” and the “cytotoxicity induced by reactive oxygen species” value [2] is listed as “counteracts”. For the same molecule, the LDL oxidation [3] was “prevents”, the platelet aggregation (platelet aggregation) was “prevents” and the absorption following ingestion [4] was “dose-dependently absorbed”. For the same molecule, the “inhibition of 12-lipoxygenase” value (12-lipoxygenase) was “inhibits”.
